Measured values: patent US11013745B2, “Triazolopyrimidine, triazolopyridine compounds, and the composition thereof for treating PRC2-mediated diseases” (SHANGHAI INSTITUTE OF MATERIA MEDICA, CHINESE ACADEMY OF …, priority 2017, dated 2021)
Read-outs that look alike come from different tables or passages of the source.

Key:
SU-DHL-4 cells = experiment: Growth inhibition of SU-DHL-4 cells in a long term (11 days), CellTiter-Glo; assay type: cell-based, Human; settings: SU-DHL-4, 11 days, read-out: SU-DHL-4 (11 days) IC50
PRC2 enzyme = PRC2 enzyme (Homo sapiens (Human), UniProt O75530); experiment: PRC2 enzyme activity, TR-FRET method; assay type: biochemical
PRC2 enzyme, sequence (O75530 whole entry): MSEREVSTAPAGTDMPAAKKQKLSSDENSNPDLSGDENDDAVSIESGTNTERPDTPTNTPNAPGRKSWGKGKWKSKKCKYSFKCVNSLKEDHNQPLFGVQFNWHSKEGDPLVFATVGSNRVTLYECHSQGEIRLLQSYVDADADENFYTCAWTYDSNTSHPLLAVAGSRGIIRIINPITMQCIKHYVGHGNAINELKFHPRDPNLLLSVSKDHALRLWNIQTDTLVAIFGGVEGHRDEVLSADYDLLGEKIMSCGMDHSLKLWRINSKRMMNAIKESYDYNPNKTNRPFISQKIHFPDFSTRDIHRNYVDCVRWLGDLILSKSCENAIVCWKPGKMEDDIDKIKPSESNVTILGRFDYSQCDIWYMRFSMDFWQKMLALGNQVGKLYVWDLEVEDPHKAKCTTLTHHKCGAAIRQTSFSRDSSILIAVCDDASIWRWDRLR
PRC2 enzyme, sequence (Q15910 whole entry partner): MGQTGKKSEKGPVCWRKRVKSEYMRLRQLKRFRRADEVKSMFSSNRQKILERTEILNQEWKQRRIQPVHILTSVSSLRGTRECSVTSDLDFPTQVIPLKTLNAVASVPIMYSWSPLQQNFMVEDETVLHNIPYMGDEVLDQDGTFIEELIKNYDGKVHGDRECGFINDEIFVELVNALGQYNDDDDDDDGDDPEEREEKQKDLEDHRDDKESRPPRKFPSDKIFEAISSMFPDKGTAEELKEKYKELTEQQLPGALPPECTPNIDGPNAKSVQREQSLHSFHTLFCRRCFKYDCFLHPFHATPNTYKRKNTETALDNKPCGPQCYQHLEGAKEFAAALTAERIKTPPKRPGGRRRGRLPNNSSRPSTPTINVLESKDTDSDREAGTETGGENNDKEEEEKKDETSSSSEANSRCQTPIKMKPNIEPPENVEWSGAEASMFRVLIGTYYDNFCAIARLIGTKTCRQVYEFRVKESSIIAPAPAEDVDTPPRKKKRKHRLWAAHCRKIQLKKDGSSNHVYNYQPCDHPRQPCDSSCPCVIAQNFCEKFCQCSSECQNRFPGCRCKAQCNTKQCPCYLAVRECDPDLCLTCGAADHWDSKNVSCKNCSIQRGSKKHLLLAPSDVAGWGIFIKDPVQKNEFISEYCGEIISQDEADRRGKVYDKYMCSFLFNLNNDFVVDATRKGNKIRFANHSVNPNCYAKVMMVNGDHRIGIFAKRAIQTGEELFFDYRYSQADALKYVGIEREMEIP
PRC2 enzyme, sequence (Q15022 whole entry partner): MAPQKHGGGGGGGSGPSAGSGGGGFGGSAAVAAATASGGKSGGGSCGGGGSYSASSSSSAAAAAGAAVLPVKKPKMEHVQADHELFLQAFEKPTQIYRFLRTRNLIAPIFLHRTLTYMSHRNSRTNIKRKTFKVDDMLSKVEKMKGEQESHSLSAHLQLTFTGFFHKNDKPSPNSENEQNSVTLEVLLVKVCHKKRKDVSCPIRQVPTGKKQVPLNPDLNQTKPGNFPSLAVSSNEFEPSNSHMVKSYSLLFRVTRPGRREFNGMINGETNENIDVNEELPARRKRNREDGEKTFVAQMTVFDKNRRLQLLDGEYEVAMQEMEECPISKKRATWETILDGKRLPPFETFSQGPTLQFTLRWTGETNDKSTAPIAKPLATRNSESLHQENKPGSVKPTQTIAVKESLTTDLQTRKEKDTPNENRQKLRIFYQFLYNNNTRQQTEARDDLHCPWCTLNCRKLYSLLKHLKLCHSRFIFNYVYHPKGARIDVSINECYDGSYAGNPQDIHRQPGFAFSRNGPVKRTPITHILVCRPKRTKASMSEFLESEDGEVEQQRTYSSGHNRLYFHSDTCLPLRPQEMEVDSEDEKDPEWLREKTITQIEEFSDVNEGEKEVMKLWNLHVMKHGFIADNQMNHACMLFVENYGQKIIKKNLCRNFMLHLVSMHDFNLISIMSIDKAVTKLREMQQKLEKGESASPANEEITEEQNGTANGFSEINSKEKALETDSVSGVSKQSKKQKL
Procedure: The TR-FRET method was used to measure the PRC2 enzyme activity. First, the enzyme was mixed with compounds at different concentrations and incubated for 30 min at room temperature. The biotin-labeled histone H3 peptide substrate and the cofactor S-adenosylmethionine (SAM) were added to initiate the enzymatic reaction. After reaction was performed at room temperature for 4 hour, Acceptor and Donor were added and incubated for half an hour. The multifunctional microplate reader EnVision (Perkin Elmer Inc.) was used to detect the fluorescence signal. Data were analyzed using GraphPad Prism 5.0 software, and IC50 values were obtained.

Pfeiffer cells [1] = experiment: Growth inhibition of Pfeiffer cells in a long term (14 days), CellTiter-Glo; assay type: cell-based, Human; settings: 14 days, read-out: Pfeiffer (14 days) IC50
Procedure: In a CO2 cell incubator (37° C., 5% CO2), Human diffuse large B-cell lymphoma (DLBCL) cell line, pfeiffer (obtained from ATCC, CRL-2632) were incubated with RPMI 1640 medium (Gibco, purchased from Life Technologies, 22400-089) containing 10% fetal bovine serum (Gibco, purchased from Life Technologies, 10099-141) and 1% antibiotics (penicillin and streptomycin, purchased from Life Technologies, 10378016). […] After seeding the cells, they were placed in a CO2 incubator and allowed to stand for 1 hour. In a 24-well plate containing cells, 2 μL of three-fold gradient of the compounds at 9 different concentrations or DMSO were added to each well, such that the final concentration of the compounds was 0.003-20 μM or 0.3-2000 nM, and the final concentration of DMSO was 0.2%. At day 4, day 7, and day 11 of compound treatment, the fresh medium and compounds were changed, and the cell density of the DMSO control well was diluted to 2*10E5 cells/mL. The cell dilution ratio for other compound wells was the same as that of the DMSO control well. Cell viability was determined by using CellTiter-Glo reagent (purchased from Promega Inc., G7572): cells treated with the compounds for 14 days were transferred to a white 384-well plate (OptiPlate-384, purchased from PerkinElmer, 6007299) at 40 μL/well, an equal volume of CellTiter-Glo reagent was further added. After incubating at room temperature for 10 min, the cold luminescence signal was detected with a multifunctional microplate reader EnVision (PerkinElmer) at a wavelength of 400 to 700 nm. Data were analyzed using GraphPad Prism 5.0 software, and IC50 values were obtained.

Karpas-422 cells = experiment: Growth inhibition of Karpas-422 cells in a long term (11 days), CellTiter-Glo; assay type: cell-based, Human; settings: Karpas-422, 11 days, read-out: Karpas-422 (11 days) IC50
[2] = Oral pharmacokinetics in rats; assay type: in vivo; settings: male, SD, plasma, rat, intragastric, 3 mg/kg; for AUC(0-inf): extrapolated to infinity, read-out: AUCINF_obs; for MRT inf: read-out: Average residence time MRTINF_obs; for half-life: read-out: Half life T1/2 (converted); for Cmax: read-out: Peak concentration Cmax
Procedure: 1. Healthy male SD rats were used as test animals, EED226, […]-07 (3 mg/kg) were administered intragastrically, and the drug concentrations in rat plasma were determined by LC/MS/MS method at different time points after drug administration. The pharmacokinetic behavior of the compounds of the present invention in rats was studied, and the pharmacokinetic properties were evaluated. 2. The test animals were healthy adult male SD rats, with 3 rats in each group, purchased from Shanghai Xipuer-Bikai Laboratory Animal Limited Company. 3. Drug preparation: Compounds EED226, […] were dissolved in DMSO/0.5% HPMC (5/95, v/v) for preparation. The compound SL-ZYE-07 was dissolved in 0.5% HPMC (containing 0.5% Tween 80), vortexed, and sonicated to disperse the solid matter uniformly to obtain a pale white suspension. 4, Operation: EED226, […]-07 were administered to rats by intragastric administration (3 mg/kg), 45 μL of blood was taken through the femoral vein at 0.25, 0.5, 1, 2, 4, 8, 24 hour after administration, and centrifuged in a heparinized centrifuge tube for 5 min, and the plasma samples were separated for analysis. The contents of test compounds in rat plasma after intragastric administration of different compounds were determined by Liquid chromatography-mass spectrometry (LC-MS/MS).

Pfeiffer cells [3] = experiment: Pfeiffer cell growth inhibition in a long term (11 days), CellTiter-Glo; assay type: cell-based, Human; settings: 11 days, read-out: Experiment on Pfeiffer cell growth inhibition in a long term (11 days IC50)
Procedure: Pfeiffer cells in exponential growth phase were seeded in a 24-well plate with a cell density of 1*10E5 cells/mL. Cells were treated on the same day with the compounds at different concentrations. At day 4 and day 7 of compound treatment, fresh media and compounds were changed. After treated with the compounds for 11 days, cell viability was measured using CellTiter-Glo reagent (Promega Corporation). The data was analyzed using GraphPad Prism 5.0 software and GI50 values were obtained.

[4] = Liver microsomal stability (human); assay type: in vitro ADME
Procedure: (§1) 1. JANUS and temperature control device was turned on. After being initialized, the pipes were flushed until there was no air bubble in the pipes.
(§2) 2. Preparation of buffers used for the experiment
(§3) Preparation of Tris pH 7.4 buffer (0.1 M): 12.12 g of Tris was dissolved in 1000 mL of H2O, the resulting solution was adjusted to pH 7.4 with 2N HCl, aliquoted at 50 mL per tube, and stored at −20° C.
(§4) Preparation of H2O/0.1% BSA buffer: 200 μL of 25% BSA was added to 50 mL of H2O.
(§5) Preparation of VIVID stock solution: 1 mg of VIVID was dissolved in 1 mL of acetonitrile, aliquoted at 50 μL per tube, and stored at −20° C.
(§6) Preparation of MgCl2 solution (100 mM): 1.016 g of MgCl2 was dissolved in 50 mL Tris pH 7.4 buffer, and aliquoted at 1 mL per tube, and stored at −20° C.
(§7) Preparation of NADPH solution (10 mM): 355 mg of NADPH was dissolved in 42.6 mL of Tris pH 7.4 buffer, aliquoted at 1.8 mL per tube, and stored at −20° C.
(§8) Preparation of Blank control: 7.937 mL of Tris, 163 μL of RLM, 450 μL of MgCl2 solution, 450 μL of NADPH solution and 9 mL of methanol were mixed uniformly, aliquoted at 1 mL per tube, and stored at −20° C.
(§9) 3. Preparation of Compound Working Solution
(§10) Dilution step 1:10 μL of compound stock solution was added to 90 μL of DMSO=1 mM stock solution.
(§11) Dilution step 2: 2 μL of 1 mM stock solution was added to 1 mL of H2O/0.1%6 BSA buffer=[…] working solution.
(§12) Dilution step 3: 245 μL of the working solution was added to a 96-well compound plate and added with 5 μL of VIVID stock solution.
(§13) The 96-well compound plate was shaken on a shaker for 5 min.
(§14) 4. The STM in the JANUS in the computer was open to run the EXCEL file, and the JANUS program was operated and run by following the instructions in the EXCEL file.
(§15) 5. After the JANUS program was finished, acetonitrile/water 50:50 (V/V) was added to column 20 of the 384-well black plate, and blank control was added to column 21 of the 384-well black plate.
(§16) 6. the plate (420 nm-465 nm) was read on a microplate reader to determine the VIVID fluorescence intensity.
(§17) 7. After the plate was sealed, shaken and centrifuged, the sample plate was subjected to the LC/MS instrument for sample analysis.
(§18) A profile of the logarithmic value of the remaining rate of the drug in the incubation system versus the incubation time was plotted, and the slope k was obtained by linear regression. The intrinsic clearance rate in vivo (Clint, mL/min/g) value, the clearance rate in vivo (Cl, mL)/min), liver clearance (Clhep, mL/min) and metabolic bioavailability (% MF) were predicted according to the following equations: […]

[5] = Liver microsomal stability (rat); assay type: in vitro ADME
Procedure: as §1, §2, §3, §4, §5, §6, §7, §8, §9, §10, §11, §12, §13, §14, §15, §16, §17, §18

[6] = Liver microsomal stability (mouse); assay type: in vitro ADME

SMILES	IC50 (SU-DHL-4 cells; Homo sapiens, 264 h)	IC50 (PRC2 enzyme)	IC50 (Pfeiffer cells [1]; Homo sapiens, 336 h)	IC50 (Karpas-422 cells; Homo sapiens, 264 h)	IC50 (Pfeiffer cells [3]; Homo sapiens, 264 h)	AUC(0-t) [2]	AUC(0-inf) [2]	MRT inf [2]	half-life [2]	Cmax [2]	also measured
Fc1ccc2c(c1CNc1ncc(C3=CCCOCC3)c3nncn13)CCO2 [SL-ZYE-07]	5 nM	7.3 nM	1 nM	25 nM		891 ± 164 ng·h/mL	910 ± 174 ng·h/mL	4.71 ± 0.896 h	3.77 ± 1.69 h	155 ± 34.8 ng/mL	
Fc1ccc2c(c1CNc1ncc(C3CCOCC3)c3nncn13)CCO2 [E-Y47]		13 nM	6 nM	18 nM		7890 ± 2430 ng·h/mL	7900 ± 2440 ng·h/mL	4.92 ± 0.369 h	2.56 ± 0.302 h	1300 ± 628 ng/mL	Clearance rate in vivo Clint In Vivo Extpl ([4]; human liver microsomes): 519 mL/min; Intrinsic clearance rate in vivo Clint In Vitro ([4]; human liver microsomes): 6.79 mL/min/gprot; Liver clearance rate Clint Hep In Vivo Extpl ([4]; human liver microsomes): 386 mL/min; half-life ([4]; human, liver microsomes, pH 7.4, human liver microsomes, read-out: Half life T-half): 5.15 h; bioavailability ([4]; human, liver microsomes, pH 7.4, human liver microsomes, read-out: Metabolic bioavailability MF %): 74.3%; Clearance rate in vivo Clint In Vivo Extpl ([5]; rat liver microsomes): 6.79 mL/min; Intrinsic clearance rate in vivo Clint In Vitro ([5]; rat liver microsomes): 15.1 mL/min/gprot; Liver clearance rate Clint Hep In Vivo Extpl ([5]; rat liver microsomes): 5.07 mL/min; Metabolic bioavailability MF % ([5]; rat liver microsomes): 74.7%; half-life ([5]; rat, liver microsomes, pH 7.4, rat liver microsomes, read-out: Half life T-half): 2.32 h; Clearance rate in vivo Clint In Vivo Extpl ([6]; mouse liver microsomes): 1.17 mL/min; Intrinsic clearance rate in vivo Clint In Vitro ([6]; mouse liver microsomes): 17.3 mL/min/gprot; Liver clearance rate Clint Hep In Vivo Extpl ([6]; mouse liver microsomes): 0.841 mL/min; Metabolic bioavailability MF % ([6]; mouse liver microsomes): 72.0%; half-life ([6]; mouse, liver microsomes, pH 7.4, mouse liver microsomes, read-out: Half life T-half): 2.02 h

The next lines start with results.

IC50 (SU-DHL-4 cells; Homo sapiens, 264 h)	IC50 (PRC2 enzyme)	IC50 (Pfeiffer cells [1]; Homo sapiens, 336 h)	IC50 (Karpas-422 cells; Homo sapiens, 264 h)	IC50 (Pfeiffer cells [3]; Homo sapiens, 264 h)	SMILES	AUC(0-t) [2]	AUC(0-inf) [2]	MRT inf [2]	half-life [2]	Cmax [2]	also measured
3.1 nM	5.2 nM	1.2 nM	2.8 nM	2.7 nM	O=C(C1CC1)N1CC=C(c2cnc(NCc3c(F)ccc4c3CCO4)n3cnnc23)CC1 [SL-ZYE-162]						
	7.8 nM				CC1C=C(c2cnc(NCc3c(F)ccc4c3CCO4)n3cnnc23)CCO1 (centres unmarked) [SL-ZYE-197]						IC50 (SU-DHL-4 cells): 56 nM; IC50 (Pfeiffer cells [3]): 10 nM; IC50 (Pfeiffer cells [1]): 5 nM; IC50 (Karpas-422 cells): 16 nM
3 nM	3.5 nM	0.8 nM	4 nM	1.8 nM	CCS(=O)(=O)N1CC=C(c2cnc(NCc3c(F)ccc4c3CCO4)n3cnnc23)CC1 [SL-ZYE-144]						
